Measurements reported in US20240108702A1, “Use Of Naturally Occurring Cyclic Peptides For Treatment Of SARS-COV-2 Infection” (The University of Southern California, priority 2021, published 2024).
Like-named read-outs stand apart in the source and are kept apart here. Where a SMILES comes first, the peptide text is derived from it. Bridges are numbered along the chain shown (N, C = ends).

Experiments:
in vivo [1] = details: rat
in vivo [2] = details: both, cynomolgus monkey, iv
[3] = Mouse model of LPS-induced acute lung injury (ALI), subcutaneous injection; details: in vivo, sc
in vivo [4] = details: both, Sprague-Dawley, rat, iv
TMPRSS2 [5] = biological target: T1, TMPRSS2 (Homo sapiens, UniProt O15393); assay: Cellular TMPRSS2 inhibition assay in Calu3 cells; assay type: cell-based; set-up: endogenous in cells; host or cells: Calu3 (Calu-3) cells
Protocol: (§1) TMPRSS2 inhibition assays. Peptides (0-50 μg/ml) were tested for their inhibitory activities against TMPRSS2 in cellular assays using Vero E6 cells, Caco-2 cells, or Calu-3 cells using standard conditions. TMPRSS2 activity was assayed in real time for 120 min by monitoring the cleavage of the TMPRSS2 substrate, Boc-Leu-Gly-Arg-AMC. Following the 2 h enzyme assay, cells were evaluated for viability using the CellTiter-Glo cellular toxicity assay.

[6] = rats
in vivo [7] = details: both, Sprague-Dawley, rat, iv; remark: listed apart in the source
TMPRSS2 [8] = biological target: T1, TMPRSS2; assay: Cellular TMPRSS2 inhibition assay in Caco-2 cells; assay type: cell-based; set-up: using Caco-2 and Calu3 cells, both of which express surface TMPRSS2; endogenous in cells; host or cells: Caco-2 cells
Protocol: Caco-2 cells (1×10^5 per well) were incubated in 96 well plates with 0 to 50 μg/ml of the indicated peptide in the presence of a TMPRSS2 substrate (Boc-Leu-Gly-Arg-AMC) in 50 mM Tris-HCl, pH 7.4. Substrate conversion was monitored in a fluorescence plate reader for 2 hours and inhibition of enzyme activity was expressed relative to a solvent control.
as §1

[9] = Interspecies allometric scaling to predict human PK and human equivalent dose
Protocol: Interspecies allometric scaling: Single-dose PK data from mice, rats, cynomolgus monkeys, and a vervet was used to predict human PK parameters using simple allometry. The relationship between CL or Vss obtained from the NCA, and the body weight was described using the following equation: Y=a·BW^b, where Y is the PK parameter (e.g., CL or Vss), BW is the bodyweight of the species, a is an allometric coefficient, and b is an allometric exponent. Linear regression was performed on log-transformed data. The predicted human equivalent dose was calculated based on the allometrically scaled clearance using the following equation: Dose=CL*AUC0-∞. The corresponding average AUCτ and AUC0-∞ at NOAEL and LOAEL, respectively, were used to convert the doses at NOAEL and LOAEL in preclinical animals to HED.

in vivo [10] = details: both, cynomolgus monkey, iv; remark: listed apart in the source

T1 sequence (O15393 whole entry): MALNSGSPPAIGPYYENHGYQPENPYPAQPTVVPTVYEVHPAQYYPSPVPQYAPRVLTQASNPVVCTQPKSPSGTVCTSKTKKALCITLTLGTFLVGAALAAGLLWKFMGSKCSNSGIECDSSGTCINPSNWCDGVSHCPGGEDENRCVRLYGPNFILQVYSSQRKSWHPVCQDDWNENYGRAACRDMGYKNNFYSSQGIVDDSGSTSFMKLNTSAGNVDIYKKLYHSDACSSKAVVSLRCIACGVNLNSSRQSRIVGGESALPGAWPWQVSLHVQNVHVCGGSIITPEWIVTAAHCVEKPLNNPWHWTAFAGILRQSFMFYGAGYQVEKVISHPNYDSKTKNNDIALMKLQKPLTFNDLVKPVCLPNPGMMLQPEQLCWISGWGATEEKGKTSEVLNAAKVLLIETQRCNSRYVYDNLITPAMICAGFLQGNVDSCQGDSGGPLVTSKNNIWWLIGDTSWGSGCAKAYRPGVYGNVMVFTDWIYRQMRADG

CC[C@H](C)[C@@H]1NC(=O)[C@@H]2CSSC[C@H](NC(=O)[C@H](CCCNC(=N)N)NC(=O)[C@@H]3CSSC[C@H](NC1=O)C(=O)N[C@@H]([C@@H](C)O)C(=O)N[C@@H](CCCNC(=N)N)C(=O)NCC(=O)N[C@@H](Cc1ccccc1)C(=O)N3)C(=O)N[C@@H](CC(C)C)C(=O)N[C@H]1CSSC[C@H](NC(=O)[C@H](C(C)C)NC(=O)CNC(=O)[C@H](CCCNC(=N)N)NC(=O)[C@H](CCCNC(=N)N)NC1=O)C(=O)N[C@@H](CCCNC(=N)N)C(=O)N2 [Peptide 1] (cyclo(GFCRCLCRRGVCRCICTR); disulfide 3-16, 5-14, 7-12)
MTD (in vivo [1]): 20 mg/kg | MTD at 7 days (in vivo [2]): 15 mg/kg | NOAEL at 7 days (in vivo [2]; 15 mg/kg): 15 mg/kg/day | AUC(0-inf) ([3]; 5 mg/kg): 3.87 µg·h/mL | AUC(0-inf) ([3]; 25 mg/kg): 9 µg·h/mL | NOAEL at 7 days (in vivo [4]): 10 mg/kg/day | IC50 (TMPRSS2 [5]): 3.12 to 3.84 µM | AUCτ on Day 7 lower than AUC0-∞ on Day 1 ([6]; 5 mg/kg group): 22% | λz ([6]; 5 mg/kg i.v., Day 1): 0.056 h⁻¹ | λz ([6]; 5 mg/kg/day i.v., Day 7): 0.104 h⁻¹ | AUCτ on Day 7 lower than AUC0-∞ on Day 1 ([6]; 10 mg/kg group): 19% | λz ([6]; 10 mg/kg i.v., Day 1): 0.148 h⁻¹ | λz ([6]; 10 mg/kg/day i.v., Day 7): 0.133 h⁻¹ | λz ([6]; 20 mg/kg i.v., Day 1): 0.221 h⁻¹ | plasma levels during recovery period ([6]; Day 25, all but one rat): undetectable | AUC (in vivo [7]; 5 mg/kg): 15 µg·h/mL | AUC(0-inf) (in vivo [7]; 5 mg/kg): 15.9 µg·h/mL | Cmax (in vivo [7]; 5 mg/kg): 7.47 µg/mL | MRT (in vivo [7]; 5 mg/kg): 4.37 h | Vd (in vivo [7]; 5 mg/kg): 1.46 L/kg | clearance (in vivo [7]; 5 mg/kg): 0.334 L/h/kg | AUC (in vivo [7]; 5 mg/kg/day): 12.5 µg·h/mL | AUC(0-inf) (in vivo [7]; 5 mg/kg/day): 12.7 µg·h/mL | Cmax (in vivo [7]; 5 mg/kg/day): 10.1 µg/mL | MRT (in vivo [7]; 5 mg/kg/day): 2.92 h | Vd (in vivo [7]; 5 mg/kg/day): 1.17 L/kg | clearance (in vivo [7]; 5 mg/kg/day): 0.401 L/h/kg | AUC (in vivo [7]; 10 mg/kg): 41.7 µg·h/mL | AUC(0-inf) (in vivo [7]; 10 mg/kg): 42.1 µg·h/mL | Cmax (in vivo [7]; 10 mg/kg): 27.5 µg/mL | MRT (in vivo [7]; 10 mg/kg): 2.88 h | Vd (in vivo [7]; 10 mg/kg): 0.691 L/kg | clearance (in vivo [7]; 10 mg/kg): 0.24 L/h/kg | AUC (in vivo [7]; 10 mg/kg/day): 34.1 µg·h/mL | AUC(0-inf) (in vivo [7]; 10 mg/kg/day): 34.7 µg·h/mL | Cmax (in vivo [7]; 10 mg/kg/day): 21.9 µg/mL | MRT (in vivo [7]; 10 mg/kg/day): 3.45 h | Vd (in vivo [7]; 10 mg/kg/day): 1.01 L/kg | clearance (in vivo [7]; 10 mg/kg/day): 0.293 L/h/kg | AUC (in vivo [7]; 20 mg/kg): 127 µg·h/mL | AUC(0-inf) (in vivo [7]; 20 mg/kg): 127 µg·h/mL | Cmax (in vivo [7]; 20 mg/kg): 35.4 µg/mL | MRT (in vivo [7]; 20 mg/kg): 4.81 h | Vd (in vivo [7]; 20 mg/kg): 0.758 L/kg | clearance (in vivo [7]; 20 mg/kg): 0.157 L/h/kg | IC50 (TMPRSS2 [8]): 3.12 to 3.84 µM | mortality (cynomolgus monkeys, 10-day repeat dose, any dose level): no mortality or unscheduled euthanasia occurred | urinalysis, ophthalmologic assessments, electrocardiogram (cynomolgus monkeys, any dose level, data not shown): no treatment-related changes | food consumption (cynomolgus, females at 10 mg/kg/day and both sexes at 15 mg/kg/day, non-adverse): Treatment-related decrease in food consumption | microscopic findings, lung (cynomolgus, males ≥10 mg/kg/day and females ≥5 mg/kg/day, Day 11, resolved by end of recovery): minimal to mild intravascular thrombosis (thromboembolism) | tolerability (male and female cynomolgus monkeys, doses up to 15 mg/kg): well tolerated | HED equivalent to NOAEL in cynomolgus monkeys ([9]; 70 kg individual): 15.9 mg/kg | HED equivalent to NOAEL in rats ([9]; 70 kg individual): 3.1 mg/kg | predicted human Vss ([9]; adult 70 kg, simple allometry): 28.0 L | NOAEL at 10 days (in vivo [10]): 15 mg/kg/day
